Measured values from a melting point compilation (Tetko et al.).

Structure (SMILES)	melting point
O=C(O)C=Cc1cc(Cl)ccc1OCc1ccc(Cl)cc1	162 to 164 °C
O=C(O)c1cnc(Cl)nc1Cl	96 to 98 °C
COc1ccc(C(CNC(=O)OCC(F)(F)F)N2CCCC2)cc1 (configuration not stated)	55 to 57 °C
Nc1nc2ccccc2nc1N1CCCC1	149 to 151 °C
CC1CCC(NC(=O)OC(C)(C)C)(C(=O)O)CC1 (configuration not stated)	151 to 153 °C
O=C(O)c1sccc1S(=O)(=O)C(F)F	121 to 123 °C
O=C(O)C1CCN(C(=O)Nc2ccccc2)CC1	178 to 183 °C
CCNC(=O)NC1(C(=O)O)CCCC1	142 to 144 °C
Sc1ncc(-c2ccccc2)n1-c1ccccc1	250 to 252 °C
CN(CC(=O)O)C(N)=O	141 to 143 °C
CC(C)(C)OC(=O)NN1CC(C(=O)O)CC1=O (configuration not stated)	169 to 171 °C
Nc1ccc(-c2nnc3n2CCCC3)cc1	227 to 229 °C
CC(C)(C)OC(=O)C1CCN(C(=O)OCc2ccccc2)CC1	56 to 58 °C
Cc1cc(C(=O)CCl)c(C)[nH]1	143 to 145 °C
NC(=O)C1CCCn2ccnc21 (configuration not stated)	177 to 179 °C
Nc1ccccc1NC(=O)c1ccc2ccccc2n1	151 to 153 °C
O=C(O)c1cccn1Cc1cccnc1	172 to 174 °C

Structure (SMILES)	melting point
Brc1cnc2ncnn2c1	184 to 186 °C
FC(F)(F)c1ccc2nnc(S)n2c1	120 to 122 °C
Cc1cc(N2CCN(C)CC2)ccc1N	100 to 102 °C
CS(=O)(=O)Nc1nnc(N)s1	251 to 253 °C
Nc1ncc(-c2ccccc2)[nH]1	139 to 141 °C
OC(c1ccc(Br)cc1)C(F)(F)F (configuration not stated)	50 to 52 °C
COc1ccc(-n2c(CCl)nc3ccccc32)cc1	121 to 125 °C
CC(C)(C)NCC(N)=O	49 to 51 °C
O=C(Nc1cccc2cccnc12)OCC(F)(F)F	75 to 77 °C
CC(C)(C)c1ccc(C2(C(=O)O)CCCCC2)cc1	160 to 162 °C
CCC(NC(=O)OC(C)(C)C)c1ccccc1O (configuration not stated)	111 to 113 °C
COCCNc1nnc(S)s1	120 to 122 °C
CC(Oc1ccc(-c2nc3ccccc3s2)cc1)C(=O)O (configuration not stated)	217 to 219 °C
CC(C)c1ccc(C(CN)NC(=O)OC(C)(C)C)cc1 (configuration not stated)	123 to 125 °C
CSC(C(=O)O)C(C)(C)C (configuration not stated)	83 to 85 °C
Oc1nnc(-c2ccccc2)o1	138 to 140 °C
Nc1ccccc1C(=O)Nc1ccc(Cl)cn1	158 to 160 °C

Now from value to compound:

melting point	Structure (SMILES)
108 to 110 °C	COc1ccc2cc(C(=O)CBr)ccc2c1
73 to 75 °C	O=C1CCOc2ccc(Br)cc21
168 to 172 °C	C#CCNS(=O)(=O)c1cccc(C(=O)O)c1
105 to 107 °C	Cc1ccc2ncnc(Cl)c2c1
119 to 121 °C	Cc1cc([N+](=O)[O-])c(C)cc1C#N
111 to 113 °C	Cc1ccc(C2CS(=O)(=O)CCN2)o1 (configuration not stated)
284 to 286 °C	Cc1nnc(-c2ccc(C(=O)O)cc2)o1
57 to 59 °C	CCOc1cc(C=CC#N)ccc1OC
88 to 91 °C	CCN(CC)S(=O)(=O)c1ccc(Cl)c([N+](=O)[O-])c1
67 to 69 °C	CC(C)(C)Sc1ccc(N)cc1
199 to 201 °C	Nc1cc(C(F)(F)F)cc2c1OCC(=O)N2
59 to 63 °C	CCCC(=O)c1cccc([N+](=O)[O-])c1
89 to 91 °C	Cc1cc(N2CCOCC2)ccc1N
160 to 163 °C	Cc1n[nH]c(C)c1S(=O)(=O)N(C)Cc1ccco1
83 to 85 °C	COC(=O)c1ccc2ccccc2n1
50 to 52 °C	Cc1ccc(-n2c(C)cc(CC(=O)O)c2C)cc1
223 to 225 °C	COc1cccc(C(N)CC(=O)O)c1 (configuration not stated)
214 to 216 °C	Cc1oncc1C(=O)Nc1ccc(C(=O)O)c(O)c1
178 to 180 °C	CC(=O)Nc1ccc(S(=O)(=O)NC(C)C(=O)O)cc1 (configuration not stated)

melting point	Structure (SMILES)
164 to 166 °C	NNC(=O)Nc1ccc2c(c1)OCO2
299 to 301 °C	Cc1[nH]c2ccccc2c(=O)c1C(C)C
134 to 136 °C	CCc1sc(N)c(C(N)=O)c1C
153 to 155 °C	O=C(O)CNC(=O)c1cccc(F)c1
96 to 98 °C	Cc1cc(N)n(-c2ccncc2)n1
167 to 169 °C	Nc1ccc2[nH]c(=O)[nH]c2c1
125 to 129 °C	CN(C)S(=O)(=O)c1cc(N)ccc1Cl
80 to 82 °C	NNc1nc2ccccc2[nH]1
29 to 31 °C	Clc1cccc2c1NCC2
66 to 68 °C	COc1cc(C=O)ccc1OCC(F)(F)F
59 to 61 °C	CC(C)C(C(=O)O)c1ccc(F)cc1 (configuration not stated)
< 17 °C	CC(C)c1ccc(Cn2nccc2N)cc1
104 to 106 °C	COc1ccccc1-c1cc(N)n(-c2ccc(C)cc2)n1
152 to 154 °C	CC(Cl)C(=O)N1CC(=O)Nc2cc(C(F)(F)F)ccc21 (configuration not stated)
142 to 144 °C	CCCc1noc2nc(C3CC3)cc(C(=O)O)c12
268 to 270 °C	Cn1ncc2c(=O)[nH]c(Cl)nc21
93 to 95 °C	CCOC(=O)c1ncoc1-c1ccco1
269 to 271 °C	Cc1ccc2ncc(C(=O)O)c(O)c2c1
89 to 91 °C	CC(=O)c1cc2cc(C)c(C)cc2o1
